Data: PubChem BioAssay AID1259407 (Chemical Carcinogenesis Research Information System (CCRIS), 2018)
Active and inactive are the calls of the source. How the calls were made is not given here.

Tested on: CCRIS mutagenicity, Ames/micronucleus/aberration tests
Experiment: CCRIS mutagenicity studies

OCC(O)CCl (centres undefined)
mutagenic call (Test System: AMES SALMONELLA TYPHIMURIUM, Strain/Indicator: TA97, Metabolic Activation: HAMSTER, LIVER, S-9, AROCLOR 1254 (10%), Method: PREINCUBATION): inactive; negative
mutagenic call (Test System: AMES SALMONELLA TYPHIMURIUM, Strain/Indicator: TA97, Metabolic Activation: RAT, LIVER, S-9, AROCLOR 1254 (10%), Method: PREINCUBATION): inactive; negative
mutagenic call (Test System: AMES SALMONELLA TYPHIMURIUM, Strain/Indicator: TA98, Metabolic Activation: HAMSTER, LIVER, S-9, AROCLOR 1254 (10%), Method: PREINCUBATION): inactive; negative
mutagenic call (Test System: AMES SALMONELLA TYPHIMURIUM, Strain/Indicator: TA98, Metabolic Activation: RAT, LIVER, S-9, AROCLOR 1254 (10%), Method: PREINCUBATION): inactive; negative
mutagenic call (Test System: AMES SALMONELLA TYPHIMURIUM, Strain/Indicator: TA98, Metabolic Activation: RAT, LIVER, S-9, KANECHLOR 500, Method: PREINCUBATION): inactive; negative
mutagenic call (Test System: AMES SALMONELLA TYPHIMURIUM, Strain/Indicator: TA100, Metabolic Activation: HAMSTER, LIVER, S-9, AROCLOR 1254 (10%), Method: PREINCUBATION): active; positive
mutagenic call (Test System: AMES SALMONELLA TYPHIMURIUM, Strain/Indicator: TA100, Metabolic Activation: NONE, Method: PREINCUBATION): active; positive
mutagenic call (Test System: AMES SALMONELLA TYPHIMURIUM, Strain/Indicator: TA100, Metabolic Activation: RAT, LIVER, S-9, AROCLOR 1254 (10%), Method: PREINCUBATION): active; positive
mutagenic call (Test System: AMES SALMONELLA TYPHIMURIUM, Strain/Indicator: TA100, Metabolic Activation: RAT, LIVER, S-9, KANECHLOR 500, Method: PREINCUBATION): inactive; negative
mutagenic call (Test System: AMES SALMONELLA TYPHIMURIUM, Strain/Indicator: TA1535, Metabolic Activation: HAMSTER, LIVER, S-9, AROCLOR 1254 (10%), Method: PREINCUBATION): active; positive
mutagenic call (Test System: AMES SALMONELLA TYPHIMURIUM, Strain/Indicator: TA1535, Metabolic Activation: NONE, Method: PREINCUBATION): active; positive
mutagenic call (Test System: AMES SALMONELLA TYPHIMURIUM, Strain/Indicator: TA1535, Metabolic Activation: RAT, LIVER, S-9, AROCLOR 1254 (10%), Method: PREINCUBATION): active; positive

Cn1c(N)nc2ccccc21
mutagenic call (Test System: AMES SALMONELLA TYPHIMURIUM, Strain/Indicator: TA98, Metabolic Activation: RAT, LIVER, S-9, AROCLOR 1254, Method: PREINCUBATION): active; positive
mutagenic call (Test System: AMES SALMONELLA TYPHIMURIUM, Strain/Indicator: TA100, Metabolic Activation: RAT, LIVER, S-9, AROCLOR 1254, Method: PREINCUBATION): active; positive

O=[N+]([O-])C(Cl)(Cl)Br
mutagenic call (Test System: Ames Salmonella typhimurium, Strain/Indicator: RSJ100, Metabolic Activation: None, Method: Standard plate): inactive; negative
mutagenic call (Test System: Ames Salmonella typhimurium, Strain/Indicator: RSJ100, Metabolic Activation: Rat, Liver, S-9, Aroclor, Method: Standard plate): active; positive
mutagenic call (Test System: Ames Salmonella typhimurium, Strain/Indicator: TA98, Metabolic Activation: None, Method: Standard plate): inactive; negative
mutagenic call (Test System: Ames Salmonella typhimurium, Strain/Indicator: TA98, Metabolic Activation: Rat, Liver, S-9, Aroclor, Method: Standard plate): inactive; negative
mutagenic call (Test System: Ames Salmonella typhimurium, Strain/Indicator: TA100, Metabolic Activation: None, Method: Standard plate): inactive; negative
mutagenic call (Test System: Ames Salmonella typhimurium, Strain/Indicator: TA100, Metabolic Activation: Rat, Liver, S-9, Aroclor, Method: Standard plate): inactive; negative
mutagenic call (Test System: Ames Salmonella typhimurium, Strain/Indicator: TA104, Metabolic Activation: None, Method: Standard plate): active; positive
mutagenic call (Test System: Ames Salmonella typhimurium, Strain/Indicator: TA104, Metabolic Activation: Rat, Liver, S-9, Aroclor, Method: Standard plate): active; positive
mutagenic call (Test System: Ames Salmonella typhimurium, Strain/Indicator: TPT100, Metabolic Activation: None, Method: Standard plate): inactive; negative

[C-]#[O+].[C-]#[O+].[Ni].c1ccc([PH+](c2ccccc2)c2ccccc2)cc1.c1ccc([PH+](c2ccccc2)c2ccccc2)cc1
mutagenic call (Test System: Ames Salmonella typhimurium, Strain/Indicator: TA100, Metabolic Activation: None, Method: Preincubation): inactive; negative
mutagenic call (Test System: Ames Salmonella typhimurium, Strain/Indicator: TA100, Metabolic Activation: Rat, Liver, S-9, Phenobarbital and 5,6-benzoflavone, Method: Preincubation): inactive; negative
mutagenic call (Test System: Ames Salmonella typhimurium, Strain/Indicator: TA102, Metabolic Activation: None, Method: Preincubation): inactive; negative
mutagenic call (Test System: Ames Salmonella typhimurium, Strain/Indicator: TA102, Metabolic Activation: Rat, Liver, S-9, Phenobarbital and 5,6-benzoflavone, Method: Preincubation): inactive; negative

O=C(O)C1CCCCC1
mutagenic call (Test System: UDS RAT GASTRIC MUCOSAL CELLS, Strain/Indicator: THY INCORP, Metabolic Activation: NONE, Method: LIQUID SCINTILLATION COUNTING): inactive; negative

COc1ccc(/C=C/c2ccc(N)cc2)cc1
mutagenic call (Test System: AMES SALMONELLA TYPHIMURIUM, Strain/Indicator: TA98(1,8-DNP6), Metabolic Activation: NONE, Method: STANDARD PLATE): inactive; negative
mutagenic call (Test System: AMES SALMONELLA TYPHIMURIUM, Strain/Indicator: TA98(1,8-DNP6), Metabolic Activation: S-9, Method: STANDARD PLATE): inactive; negative
mutagenic call (Test System: AMES SALMONELLA TYPHIMURIUM, Strain/Indicator: TA98, Metabolic Activation: NONE, Method: STANDARD PLATE): inactive; negative
mutagenic call (Test System: AMES SALMONELLA TYPHIMURIUM, Strain/Indicator: TA98, Metabolic Activation: S-9, Method: STANDARD PLATE): active; positive
mutagenic call (Test System: AMES SALMONELLA TYPHIMURIUM, Strain/Indicator: TA100, Metabolic Activation: NONE, Method: STANDARD PLATE): inactive; negative
mutagenic call (Test System: AMES SALMONELLA TYPHIMURIUM, Strain/Indicator: TA100, Metabolic Activation: S-9, Method: STANDARD PLATE): active; positive
